Results reported in patent publication US20110065723A1, “COMPOSITIONS OF N-BENZYL-3-(4-CHLOROPHENYL)-2-[METHYL-[2-OXO-2-(3,4,5-TRIMETHOXYPHENYL)ACETYL]AMINO]-N-[3-(4-PYRIDYL)-1-[2-(4-PYRIDYL)ETHYL]PROPYL]PROPANAMIDE AND USES THEREOF” (priority 2009, published 2011).

Assays:
[1] = tested on: Mycobacterium tuberculosis Erdman strain (Mtb ATCC 35801); assay: Susceptibility testing (broth microdilution MIC) with or without TIM; assay type: cell-based; conditions: TIM 10 μg/ml
in vivo = conditions: C57BL/6, mouse, po, 10 mg/kg; for AUC(0-inf): RIF AUCinf Plasma; for Cmax: RIF Cmax Plasma
[2] = tested on: Mycobacterium tuberculosis Erdman strain in macrophages; assay: Mtb-THP-1 macrophage infection screening assay; assay type: cell-based
Mtb Erdman = assay: Mouse infection model (lung CFU); assay type: in vivo, C57BL/6 mice; conditions: mice, lungs; TIM 200, INH 25 mg/kg; 4 weeks; FIG. 4B; not to the same extent as RIF, statistically significant
[3] = RIF 10 mg/kg + TIM 200 mg/kg dosed 6 hours prior to RIF

Molecule: COc1nc2ccc(Br)cc2cc1[C@@H](c1ccccc1)[C@@](O)(CCN(C)C)c1cccc2ccccc12 [TMC-207]
- potentiating effect of TIM on the activity against Mtb ([1]; MIC without vs with TIM): 15 fold

Molecule: CO[C@H]1/C=C/O[C@@]2(C)Oc3c(C)c(O)c4c(O)c(c(/C=N/N5CCN(C)CC5)c(O)c4c3C2=O)NC(=O)/C(C)=C\C=C\[C@H](C)[C@H](O)[C@@H](C)[C@@H](O)[C@@H](C)[C@H](OC(C)=O)[C@@H]1C [RIF, rifampicin]
- AUC(0-inf) (in vivo; [3]): 153 µg·h/mL
- AUC(0-inf) (in vivo; RIF 10 mg/kg alone): 152 µg·h/mL
- Cmax (in vivo; [3]): 14900 ng/mL
- Cmax (in vivo; RIF 10 mg/kg alone): 19800 ng/mL
- Log10 CFU ([2]; Drug conc. 0.04 ug/mL): 4.71 Log10 CFU
- Log10 CFU ([2]; Drug conc. 0.1 ug/mL): 4.47 Log10 CFU
- Log10 CFU ([2]; Drug conc. 0.4 ug/mL): 4.58 Log10 CFU
- Log10 CFU ([2]; Drug conc. 1.1 ug/mL): 3.98 Log10 CFU
- Log10 CFU ([2]; Drug conc. 3.3 ug/mL): 1.94 Log10 CFU
- Log10 CFU ([2]; Drug conc. 10 ug/mL): 2.12 Log10 CFU
- Log10 CFU ([2]; Drug conc. 30 ug/mL): 1.10 Log10 CFU

Molecule: CC(=O)NC[C@H]1CN(c2ccc(N3CCOCC3)c(F)c2)C(=O)O1 [Linezolid]
- in vitro effect of TIM on the activity of the drug against Mtb [1]: no in vitro effect

Molecule: CC(=O)NC[C@H]1CN(c2ccc(N3CCSCC3)c(F)c2)C(=O)O1 [U-100480]
- in vitro effect of TIM on the activity of the drug against Mtb [1]: no in vitro effect

Molecule: COc1c(N2CCNC(C)C2)c(F)cc2c(=O)c(C(=O)O)cn(C3CC3)c12 (centres unmarked) [gatifloxacin]
- in vitro effect of TIM on the activity of the drug against Mtb [1]: no in vitro effect

Molecule: NNC(=O)c1ccncc1 [Isoniazid, isoniazid]
- in vitro effect of TIM on the activity of the drug against Mtb [1]: no in vitro effect
- effect of TIM on activity in vivo (Mtb Erdman): does enhance INH activity in vivo

Molecule: CO[C@H]1/C=C/O[C@@]2(C)Oc3c(C)c(O)c4c(O)c(c(/C=N/N5CCN(C6CCCC6)CC5)c(O)c4c3C2=O)NC(=O)/C(C)=C\C=C\[C@H](C)[C@H](O)[C@@H](C)[C@@H](O)[C@@H](C)[C@H](OC(C)=O)[C@@H]1C [Rifapentine, rifapentine]
- in vitro effect of TIM on the activity of the drug against Mtb [1]: no in vitro effect

Molecule: CCc1cc(C(N)=S)ccn1 [ethionamide]
- in vitro effect of TIM on the activity of the drug against Mtb [1]: no in vitro effect

Molecule: acriflavin
- in vitro effect of TIM on the activity of the drug against Mtb [1]: no in vitro effect
